Calls of active or inactive are those of the source. The rule behind the calls is not given here. Some results are limits rather than exact numbers.

Data set [1] is described as follows: Modulation of gamma-secretase expressed in CHO cells co-expressing APP V717F mutant assessed as reduction in amyloid beta42 production after 17 hrs by ELISA. In kind it is cell-based.
Data set [2] in a line: Drug uptake in wild type CF1 mouse brain at 50 mg/kg, po after 4 hrs. The note with it: read-out: Drug uptake. It counts as ADME, organism-based. More on the design: dose 50 mg/kg, route oral.
For data set [3], the system named is Mus musculus. The data set is described as follows: Inhibition of gamma-secretase-mediated cleavage of APP in wild type CF1 mouse brain assessed as inhibition of amyloid beta42 production at 50 mg/kg, po after 4 hrs by ELISA. In kind it is functional.
A short description of data set [4]: Modulation of gamma-secretase expressed in CHO cells co-expressing polyhistidine-tagged APP695NL I-his with FAD-linked Swedish and London mutation assessed as reduction in amyloid beta42 production after 2 hrs by ELISA. In kind it is cell-based.
Data set [5] can be described thus: Clearance in wild type CF1 mouse. It counts as ADME, organism-based. The note with it: in vivo.
Data set [6] in a line: Half life in wild type CF1 mouse. Conditions: in vivo. In kind it is ADME, organism-based.
Data set [7] can be described thus: Oral bioavailability in wild type CF1 mouse. Conditions: in vivo. In kind it is ADME, organism-based.
Data set [8] in a line: Drug uptake in wild type CF1 mouse plasma at 50 mg/kg, po after 4 hrs. It counts as ADME, organism-based. More on the design: dose 50 mg/kg, route oral.
The nature of data set [9]: Drug uptake in wild type CF1 mouse plasma at 30 mg/kg, po after 4 hrs. In kind it is ADME, organism-based. Also noted: dose 30 mg/kg, route oral.
The subject of data set [10] is Mus musculus. Kind of data set: Inhibition of gamma-secretase-mediated cleavage of APP in wild type CF1 mouse brain assessed as inhibition of amyloid beta42 production at 30 mg/kg, po after 4 hrs by ELISA. Conditions: for inhibition in vivo at 30 mg/kg: Mus musculus, CF1, Brain, po, 4 h. In kind it is functional. For orientation: An ELISA detects its analyte on a solid surface through an enzyme-linked reagent.

A short description of data set [11]: Drug uptake in wild type CF1 mouse brain at 30 mg/kg, po after 4 hrs. In kind it is ADME, organism-based. Also noted: dose 30 mg/kg, route oral. Conditions: read-out: Drug uptake.
Data set [12] concerns Mus musculus. Kind of data set: Inhibition of gamma-secretase-mediated cleavage of APP in orally dosed wild type CF1 mouse brain assessed as inhibition of amyloid beta42 production after 4 hrs by ELISA. It counts as functional, organism-based.
Another data set addresses Cytochrome P450 3A4 (Homo sapiens, UniProt P08684). The data set is described as follows: Inhibition of human CYP3A4. It counts as ADME.
Data set [13] is described as follows: Half life in dog at 0.5 mg/kg. It counts as ADME, organism-based, Canis lupus familiaris. Also noted: dose 0.5 mg/kg. Conditions: in vivo.
The test system of a further data set is Caco-2. Kind of data set: Ratio of permeability from basolateral to apical side to apical to basolateral side in human Caco2 cells. It counts as ADME, cell-based. (Passage across Caco-2 layers is used to estimate intestinal permeability.)
A short description of data set [14]: Apparent permeability from apical to basolateral side in human Caco2 cells. The note with it: caco-2. In kind it is ADME, cell-based.
For another data set, the system named is Canis familiaris. The data set is described as follows: Dose normalised AUC in dog at 0.5 mg/kg. The note with it: in vivo. In kind it is ADME, organism-based, Canis lupus familiaris. Also noted: dose 0.5 mg/kg.
A short description of data set [15]: Drug uptake in wild type CF1 mouse brain at 12.5 mg/kg, po after 4 hrs. It counts as ADME, organism-based. Also noted: dose 12.5 mg/kg, route oral. The note with it: read-out: Drug uptake.
Data set [16] in a line: Half life in F344 rat at 2 mg/kg. Also noted: dose 2 mg/kg. In kind it is ADME, organism-based. Conditions: in vivo.
The species named for data set [17] is Rattus norvegicus. Kind of data set: Liver blood flow in rat. It counts as ADME, organism-based.
Data set [18] in a line: Clearance in F344 rat at 2 mg/kg. More on the design: dose 2 mg/kg. It counts as ADME, organism-based. Conditions: in vivo.
For another data set, the species on record is Homo sapiens. The data set is described as follows: Liver blood flow in human. In kind it is ADME, organism-based.
Data set [19] concerns the target Voltage-gated inwardly rectifying potassium channel KCNH2 (Homo sapiens, UniProt Q12809). The data set is described as follows: Inhibition of human ERG at 10 uM.
Data set [20] has as its system Mus musculus. Kind of data set: Inhibition of gamma-secretase-mediated cleavage of APP in wild type CF1 mouse brain assessed as inhibition of amyloid beta42 production at 12.5 mg/kg, po after 4 hrs by ELISA. It counts as functional. Conditions: Mus musculus, CF1, Brain, po, 4 h.
In the next data set the target is Cytochrome P450 2C9 (Homo sapiens, UniProt P11712). Kind of data set: Inhibition of human CYP2C9. It counts as ADME.
Chain of Cytochrome P450 2C9 (P11712 whole entry): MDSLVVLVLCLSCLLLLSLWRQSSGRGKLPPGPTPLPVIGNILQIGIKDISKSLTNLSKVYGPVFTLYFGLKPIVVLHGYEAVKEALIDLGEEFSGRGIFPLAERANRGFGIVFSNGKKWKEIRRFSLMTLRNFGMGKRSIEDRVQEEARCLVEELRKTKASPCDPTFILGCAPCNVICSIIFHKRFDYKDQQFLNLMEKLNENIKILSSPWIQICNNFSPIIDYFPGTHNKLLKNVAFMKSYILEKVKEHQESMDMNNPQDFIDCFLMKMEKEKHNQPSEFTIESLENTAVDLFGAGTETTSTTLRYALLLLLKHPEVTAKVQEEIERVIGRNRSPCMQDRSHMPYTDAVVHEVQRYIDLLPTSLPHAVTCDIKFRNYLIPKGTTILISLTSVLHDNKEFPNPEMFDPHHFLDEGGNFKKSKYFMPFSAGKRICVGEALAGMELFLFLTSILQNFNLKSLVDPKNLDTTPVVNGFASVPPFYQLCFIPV
Data set [21] relates to Rattus norvegicus. The data set is described as follows: Dose normalised AUC in F344 rat at 2 mg/kg. It counts as ADME, organism-based. More on the design: dose 2 mg/kg. The note with it: in vivo.
The target in another data set is T1, Cytochrome P450 1A2 (Homo sapiens, UniProt P05177).
T1 sequence (P05177 whole entry): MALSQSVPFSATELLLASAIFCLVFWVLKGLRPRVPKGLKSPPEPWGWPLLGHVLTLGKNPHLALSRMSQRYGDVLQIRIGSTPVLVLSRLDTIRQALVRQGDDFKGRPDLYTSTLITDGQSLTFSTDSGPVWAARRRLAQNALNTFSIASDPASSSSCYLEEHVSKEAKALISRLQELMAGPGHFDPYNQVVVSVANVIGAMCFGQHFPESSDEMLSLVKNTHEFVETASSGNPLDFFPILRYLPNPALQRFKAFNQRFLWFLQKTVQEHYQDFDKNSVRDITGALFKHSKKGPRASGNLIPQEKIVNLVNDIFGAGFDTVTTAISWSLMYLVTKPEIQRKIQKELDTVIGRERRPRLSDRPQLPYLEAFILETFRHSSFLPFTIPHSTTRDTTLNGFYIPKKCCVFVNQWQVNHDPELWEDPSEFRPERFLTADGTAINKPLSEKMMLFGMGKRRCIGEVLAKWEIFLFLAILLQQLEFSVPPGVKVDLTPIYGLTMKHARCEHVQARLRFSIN
The data set is described as follows: Inhibition of human CYP1A2. It counts as ADME.

Data set [22] is described as follows: Clearance in dog at 0.5 mg/kg. It counts as ADME, organism-based, Canis lupus familiaris. The note with it: in vivo. More on the design: dose 0.5 mg/kg.
Data set [23] can be described thus: Ratio of drug level in brain to plasma in wild type CF1 mouse at 30 mg/kg, po after 4 hrs. In kind it is ADME, organism-based. Also noted: dose 30 mg/kg, route oral. The note with it: read-out: BPR.
A short description of data set [24]: Cmax in dog at 0.5 mg/kg. In kind it is ADME, organism-based, Canis lupus familiaris. Also noted: dose 0.5 mg/kg. Conditions: in vivo.
Another data set deals with Cytochrome P450 2C19 (Homo sapiens, UniProt P33261). Kind of data set: Inhibition of human CYP2C19. In kind it is ADME.
Chain of Cytochrome P450 2C19 (P33261 whole entry): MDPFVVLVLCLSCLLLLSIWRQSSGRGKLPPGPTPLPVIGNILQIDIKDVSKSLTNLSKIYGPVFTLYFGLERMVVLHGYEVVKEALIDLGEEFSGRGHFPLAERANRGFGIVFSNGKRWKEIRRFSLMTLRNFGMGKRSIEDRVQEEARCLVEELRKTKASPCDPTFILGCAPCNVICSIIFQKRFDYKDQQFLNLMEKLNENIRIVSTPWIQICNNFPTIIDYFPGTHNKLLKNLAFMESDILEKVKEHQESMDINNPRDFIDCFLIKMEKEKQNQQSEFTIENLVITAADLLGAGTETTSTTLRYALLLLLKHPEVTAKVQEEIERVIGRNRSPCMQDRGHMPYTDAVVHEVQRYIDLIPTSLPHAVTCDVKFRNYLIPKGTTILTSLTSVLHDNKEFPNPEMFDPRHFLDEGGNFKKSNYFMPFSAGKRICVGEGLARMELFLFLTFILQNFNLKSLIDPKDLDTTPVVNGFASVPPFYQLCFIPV
Another data set concerns the target Cytochrome P450 2D6 (Homo sapiens, UniProt P10635). The data set is described as follows: Inhibition of human CYP2D6. In kind it is ADME.

Chain of Cytochrome P450 3A4 (P08684 whole entry): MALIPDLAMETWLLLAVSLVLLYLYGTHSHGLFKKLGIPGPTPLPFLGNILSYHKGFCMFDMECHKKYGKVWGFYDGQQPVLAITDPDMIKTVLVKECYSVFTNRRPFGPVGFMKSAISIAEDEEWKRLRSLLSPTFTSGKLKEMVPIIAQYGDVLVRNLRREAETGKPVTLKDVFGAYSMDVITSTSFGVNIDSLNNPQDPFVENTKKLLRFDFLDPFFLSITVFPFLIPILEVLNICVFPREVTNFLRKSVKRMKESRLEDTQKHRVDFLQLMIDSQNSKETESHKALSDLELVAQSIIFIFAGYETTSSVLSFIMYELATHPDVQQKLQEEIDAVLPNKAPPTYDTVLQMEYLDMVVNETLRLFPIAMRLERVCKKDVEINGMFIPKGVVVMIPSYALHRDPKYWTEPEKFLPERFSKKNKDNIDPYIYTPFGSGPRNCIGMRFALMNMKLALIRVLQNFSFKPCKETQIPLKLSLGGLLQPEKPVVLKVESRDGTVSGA
Chain of Cytochrome P450 2D6 (P10635 whole entry): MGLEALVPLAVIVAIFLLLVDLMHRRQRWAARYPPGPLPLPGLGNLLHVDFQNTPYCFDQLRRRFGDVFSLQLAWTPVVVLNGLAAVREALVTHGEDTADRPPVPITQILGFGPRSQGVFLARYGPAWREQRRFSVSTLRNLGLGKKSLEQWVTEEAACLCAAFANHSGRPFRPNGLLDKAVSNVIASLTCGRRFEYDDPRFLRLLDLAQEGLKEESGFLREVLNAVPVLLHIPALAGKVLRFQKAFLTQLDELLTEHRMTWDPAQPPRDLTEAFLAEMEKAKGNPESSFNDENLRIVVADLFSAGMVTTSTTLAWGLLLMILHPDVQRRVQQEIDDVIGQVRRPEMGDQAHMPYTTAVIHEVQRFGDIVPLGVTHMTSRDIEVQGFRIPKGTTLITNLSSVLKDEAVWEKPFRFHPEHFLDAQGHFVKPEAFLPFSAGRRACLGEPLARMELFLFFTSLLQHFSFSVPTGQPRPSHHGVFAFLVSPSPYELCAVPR
Chain of Voltage-gated inwardly rectifying potassium channel KCNH2 (Q12809 whole entry): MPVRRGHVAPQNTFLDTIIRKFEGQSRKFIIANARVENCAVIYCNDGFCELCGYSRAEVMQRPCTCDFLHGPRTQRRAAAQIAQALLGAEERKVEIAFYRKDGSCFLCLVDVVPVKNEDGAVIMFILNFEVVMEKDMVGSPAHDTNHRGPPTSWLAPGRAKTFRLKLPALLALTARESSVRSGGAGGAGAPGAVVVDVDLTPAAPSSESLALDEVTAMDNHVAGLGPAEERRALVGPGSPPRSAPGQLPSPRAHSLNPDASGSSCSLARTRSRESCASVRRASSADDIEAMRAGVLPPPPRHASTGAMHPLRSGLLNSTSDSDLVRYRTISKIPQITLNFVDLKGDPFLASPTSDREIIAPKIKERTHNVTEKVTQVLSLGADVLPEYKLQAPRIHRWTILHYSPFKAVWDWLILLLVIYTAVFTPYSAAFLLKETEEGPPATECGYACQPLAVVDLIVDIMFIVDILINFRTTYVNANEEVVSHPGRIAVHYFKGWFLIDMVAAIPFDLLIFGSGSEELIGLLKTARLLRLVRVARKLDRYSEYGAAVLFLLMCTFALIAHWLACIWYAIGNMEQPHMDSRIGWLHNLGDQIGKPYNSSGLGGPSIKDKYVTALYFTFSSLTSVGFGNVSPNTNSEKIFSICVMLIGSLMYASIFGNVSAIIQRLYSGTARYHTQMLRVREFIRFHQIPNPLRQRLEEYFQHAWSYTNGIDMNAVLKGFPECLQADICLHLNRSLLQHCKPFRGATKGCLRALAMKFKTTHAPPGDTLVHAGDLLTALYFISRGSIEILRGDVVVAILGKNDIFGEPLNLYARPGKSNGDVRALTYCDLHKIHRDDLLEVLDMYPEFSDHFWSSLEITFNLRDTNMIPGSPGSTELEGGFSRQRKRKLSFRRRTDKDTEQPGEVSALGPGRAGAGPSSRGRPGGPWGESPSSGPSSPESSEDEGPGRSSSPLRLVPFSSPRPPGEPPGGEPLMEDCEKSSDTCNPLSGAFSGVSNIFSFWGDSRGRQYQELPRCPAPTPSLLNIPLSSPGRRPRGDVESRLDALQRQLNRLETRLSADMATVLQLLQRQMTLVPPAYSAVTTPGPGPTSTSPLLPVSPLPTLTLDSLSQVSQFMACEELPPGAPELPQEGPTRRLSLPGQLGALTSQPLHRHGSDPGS

By EC50 is commonly meant the midpoint of the concentration-response curve. For the compound `CC(C)CCN(Cc1ccc(CC(=O)O)cc1-c1ccc(C(F)(F)F)nc1)[C@H]1CC[C@H](C(C)(C)C)CC1`, in data set [1], the EC50 worked out at 5 µM.

As for `CC(C)CCC(c1ccc(CC(=O)O)cc1-c1ccc(C(F)(F)F)cc1)N1CCC(F)CC1` (centres undefined), in data set [1], the half-maximal effective concentration (EC50) turned out to be 3.3 µM.

With `CC(C)CCN(Cc1ccc(C(CC(C)C)C(=O)O)cc1-c1ccc(C(F)(F)F)cc1)[C@H]1CC[C@H](C(C)(C)C)CC1` (mixture of isomers), the concentration at 4 h in [2] stood at 0.7 µM. Moreover, the concentration for a half-maximal effect (EC50) in [1] was 0.12 µM. For the same compound, in the data set on Mus musculus [3], the inhibition result is “inactive”.

As for `C[C@@H](C(=O)O)c1ccc(-c2ccccc2)c(F)c1` [TARENFLURBIL], the EC50 in data set [4] came out at 300 µM.

Take `CC(C)CCC(c1ccc(CC(=O)O)cc1-c1ccc(C(F)(F)F)cc1)N1CCC(C(C)(C)C)CC1` (centres undefined): the EC50 in data set [1] was determined as 1.1 µM.

The clearance is the volume of plasma or blood freed of the substance per unit of time. High values mean efficient removal, low ones inefficient removal. The half-life is how long it takes for the measured level to halve. What is called bioavailability is dose-corrected exposure relative to a reference, in per cent. A word on the inhibition in vivo: it is how much of the control response was suppressed. In data set [5], `CC(C)CCC(c1ccc(CC(=O)O)cc1-c1ccc(C(F)(F)F)cc1)N1CCC(C(F)(F)F)CC1` (centres undefined) had a clearance of 3.2 mL/min/kg. The concentration at 4 h was 17 µM in data set [2] and 32 µM in [8]. For the same compound, the half-life in data set [6] is 2.9 h. The half-maximal effective concentration (EC50) in data set [1] was found to be 0.62 µM. Moreover, in data set [7], the bioavailability is 100%. In addition, the inhibition in vivo at 50 mg/kg in the data set on Mus musculus [3] amounted to 35%.

On to `CC(C)CCC(c1ccc(C(C)(C)C(=O)O)cc1-c1ccc(C(F)(F)F)cc1)N1CCC(C(F)(F)F)CC1` (centres undefined), for which the concentration at 4 h in data set [9] worked out at 21 µM; in [11], 13 µM. The inhibition in vivo at 30 mg/kg with Mus musculus [10] was determined as 20%. In addition, in data set [1], the EC50 was determined as 0.46 µM.

In the case of `CC(C)CCC(c1ccc(C(C)C(=O)O)cc1-c1ccc(C(F)(F)F)cc1)N1CCC(C(F)(F)F)CC1` (centres undefined), the concentration at 4 h worked out at 22 µM in [9] and 13 µM in data set [11]. Also, the inhibition in vivo at 30 mg/kg in the data set with Mus musculus [10] stood at 35%. Besides, the EC50 in [1] was found to be 0.34 µM.

For `CC(C)CCC(c1ccc(CC(=O)O)cc1-c1ccc(C(F)(F)F)cc1)N1CCC(C)CC1` (centres undefined), the concentration giving a half-maximal response (EC50) in data set [1] stood at 10 µM.

For `CC(C)CCC(c1ccc(CC(=O)O)cc1-c1ccc(C(F)(F)F)cc1)N1CCC(F)(F)C1` (centres undefined), the concentration for a half-maximal effect (EC50) in data set [1] is 3.3 µM.

Take `CC(C)CCC(c1ccc(CC(=O)O)cc1-c1ccc(C(F)(F)F)cc1)N1CC[C@@H](F)C1` (some centres undefined): the concentration for a half-maximal effect (EC50) in data set [1] is over 10 µM.

As for `CC(C)(C)CC(c1ccc(CC(=O)O)cc1-c1ccc(C(F)(F)F)cc1)N1CCC(C(F)(F)F)CC1` (racemic) [listing 1 of 2 here], the inhibition result with Mus musculus [12] is “Dose-dependent effect”.

For `O=C(O)Cc1ccc(C(CC2CCCCC2)N2CCC(C(F)(F)F)CC2)c(-c2ccc(C(F)(F)F)cc2)c1` (centres undefined), the concentration at 4 h in data set [9] amounted to 25 µM; in data set [11], 18 µM. Also, the inhibition in vivo at 30 mg/kg in the data set on Mus musculus [10] is 30%. Moreover, the EC50 in [1] was 0.54 µM.

The IC50 is the midpoint of a concentration-inhibition curve. Higher therefore signals lower potency. Broadly, the Papp A→B is the apparent permeability from the apical to the basolateral side of a cell layer. What is called Cmax is the highest concentration seen after dosing. In the case of `CC(C)(C)CC(c1ccc(CC(=O)O)cc1-c1ccc(C(F)(F)F)cc1)N1CCC(C(F)(F)F)CC1` (racemic) [listing 2 of 2 here], the concentration for half-maximal inhibition (IC50) against Cytochrome P450 3A4, against Cytochrome P450 2C9, against Cytochrome P450 1A2, against Cytochrome P450 2C19 and at Cytochrome P450 2D6 was over 10 µM in each case. Also, the half-life was 10.1 h in data set [13] and 9.6 h in data set [16]. For the same compound, the Ratio in the data set with Caco-2 was determined as 1.9. The Papp A→B in data set [14] amounted to 16 ×10⁻⁶ cm/s. For the same compound, the results for the AUC/dose in the data set on Canis familiaris and with Rattus norvegicus [21] were 28712 ng·kg·h/mL/mg and 5495 ng·kg·h/mL/mg, respectively. The concentration at 4 h in [15] came out at 9 µM; in data set [9] it was 37 µM; in data set [11], 32 µM. Also, the values for the QH in the data set filed under Rattus norvegicus [17] and in the data set filed under Homo sapiens were 31% and 39%, respectively. For the same compound, the clearance in [18] came out at 2.5 mL/min/kg; in data set [22], 0.6 mL/min/kg. Besides, the “inhibition (INH)” value in data set [19] was “Not Active”; in the data set with Mus musculus [10] (30 mg/kg), 50%. In addition, in the data set with Mus musculus [20], the inhibition in vivo at 12.5 mg/kg was 25%. Besides, the Kp at 4 h in data set [23] came to 1. Besides, the Cmax in [24] is 1120 ng/mL. In [1], the EC50 was 0.63 µM.

Values taken from ChEMBL document CHEMBL1926647, “Discovery of 4-aminomethylphenylacetic acids as γ-secretase modulators via a scaffold design approach” (Bioorg Med Chem Lett, 2011).
